Test results published in US20100197625A1, “SYNTHETIC LIPOPHILIC INOSITOL GLYCANS FOR TREATMENT OF CANCER AND GLUCOSE-METABOLISM DISORDERS” (priority 2006, published 2010).

Legend:
[1] = system: human normal cultured cells; assay: Proliferation of human normal cultured cells; type: cell-based; conditions: 1-100 μM, data not shown
Experimental: Human primary culture cells, dermal fibroblasts, epidermal keratinocytes and umbilical vein endothelial cells were purchased from Cell Applications (San Diego, Calif., USA) and cultured according to the manufacturer's instructions.
(§1) Cell proliferation assays were performed with the CellTiter 96 AQueous One Solution Cell Proliferation Assay kit according to the manufacturer's instructions (Promega, Madison, Wis., USA). Briefly, 5×10^3 cells/well in medium were placed onto 96-well plates. IGs were added to cellular cultures at final concentrations of 0, 1, 10, and 100 μM. Cultures were incubated for 3 days or 7 days and then added to 20 μL/well of CellTiter 96 AQueous One Solution Reagent, which contains a tetrazolium compound, 3-(4,5-dimethylthiazol-2-yl)-5-(3-carboxymethoxyphenyl)-2-(4-sulfophenyl)-2H-tetrazolium, an inner salt; MTS was added to the culture medium. After incubating the plate for 1 h in a CO2 incubator, absorbance at 490 nm was recorded with a 96-well plate reader.

AGS = assay: Cell proliferation / cell death assay, AGS; type: cell-based, human; conditions: 10-100 μM
Experimental: (§2) Human pancreatic cancer cell lines (Panc-1, MiaPaca2, BXPC3, Aspc 1), human hepatoma cell line (HuH7), human gastric cancer cell lines (AGS, MKN45), human colon cancer cell line (CoCM-1), human mammary cancer cell line (MCF-7), human neuroblastoma (SH-SY5Y), human prostate cancer cells (PC3), and murine Ehrlich ascites cancer cells and mouse 3T3-L1 fibroblasts were obtained from American Type Culture Collection (Rockville, Md., USA). The cancer cells were cultured in RPMI 1640 containing 10% fetal calf serum. Cultures were maintained at 37° C. in a humidified atmosphere of 5% CO2.
as §1

[2] = system: C57B/6 mice on high-fat diets; assay: IG1 treatment for 28 days, mice on high-fat diets; type: in vivo; conditions: data not shown
Experimental: (§3) Male C57BL/6 mice were housed individually and given free access to a standard diet (65% carbohydrate, 4% fat, and 24% protein) or a high-fat diet (Quick Fat; 60.2% carbohydrate, 15.3% fat, and 24.5% protein; Clea Japan, Tokyo, Japan), starting at 5 weeks of age, for 5 weeks. Db/db mice also were housed individually and given free access to a standard diet. C57BL/6 mice at 5 weeks of age, were received a single dose of 75 μg/g body weight streptozotoxin (STZ). 7 days after injections, the mice, whose fasting plasma glucose concentrations were over 400 mg/dl, were used as STZ-diabetic mice. Animal study protocols were in accordance with the institutional guidelines for animal experiments at Tohoku University.
(§4) Blood glucose was assayed with Glucose Ace (Sanwa Kagaku Kenkyusho, Nagoya, Japan). Serum insulin and leptin were determined with ELISA kits (Morinaga Institute of Biological Science, Yokohama, Japan). Serum adiponectin and tumor necrosis factor-α (TNF-α) concentrations were measured with an ELISA kit (Ohtsuka Pharmaceutical, Tokyo, Japan) and a TNF-α assay kit (Amersham Biosciences, Uppsala, Sweden), respectively. Serum total cholesterol, triglyceride, and FFA concentrations were determined with a Cholescolor liquid, Lipidos liquid (TOYOBO, Osaka, Japan), and NEFA C (Wako Pure Chemical, Osaka, Japan) kits, respectively.

MiaPaca2 = assay: Cell proliferation / cell death assay, MiaPaca2; type: cell-based, human; conditions: MiaPaca2, 10-100 μM
Experimental: as §2, §1

[3] = system: C57B/6 mice on normal diets; assay: Intraperitoneal IG1 for 7 days, mice on normal diets; type: in vivo; conditions: intraperitoneal for every 7 days, data not shown
Experimental: as §3, with “Animal study protocols were in accordance with the institutional guidelines for animal experiments at Tohoku University.” left out
(§5) Frozen livers were homogenized, and triglycerides were extracted with CHCl3:CH3OH (2:1, vol:vol), dried and resuspended in 2-propanol (17). Triglyceride contents were measured using Lipidos liquid (TOYOBO, Osaka, Japan). […] Glycogen content was determined by the phenol-sulfuric acid spectrophotometric method at 490 nm (18) and expressed as micrograms of glycogen per milligram of liver.
as §4, with “Serum total cholesterol, triglyceride, and FFA concentrations were determined with a Cholescolor liquid, Lipidos liquid (TOYOBO, Osaka, Japan), and NEFA C (Wako Pure Chemical, Osaka, Japan) kits, respectively.” left out

MKN45 = assay: Cell proliferation / cell death assay, MKN45; type: cell-based, human; conditions: MKN45, 10-100 μM
Experimental: as §2, §1

[4] = system: C57B/6 mice on normal diets; assay: Intravenous administration of IG1, mice on normal diets; type: in vivo
Experimental: as §3, with “Animal study protocols were in accordance with the institutional guidelines for animal experiments at Tohoku University.” left out
as §5
as §4, with “Serum total cholesterol, triglyceride, and FFA concentrations were determined with a Cholescolor liquid, Lipidos liquid (TOYOBO, Osaka, Japan), and NEFA C (Wako Pure Chemical, Osaka, Japan) kits, respectively.” left out

[5] = system: human umbilical vein endothelial cells (HUVEC); assay: Cell death of human umbilical vein endothelial cells; type: cell-based; conditions: in 1 hour
ob/ob obese mice = assay: IG-1 treatment for 28 days, ob/ob obese mice; type: in vivo; conditions: IG1 1 mg, Mean ± SD (n = 6)
Experimental: as §4

STZ-diabetic mice = assay: Intraperitoneal IG1 for 7 days, STZ-diabetic mice; type: in vivo
Experimental: as §3, with “Animal study protocols were in accordance with the institutional guidelines for animal experiments at Tohoku University.” left out
as §5
as §4, with “Serum total cholesterol, triglyceride, and FFA concentrations were determined with a Cholescolor liquid, Lipidos liquid (TOYOBO, Osaka, Japan), and NEFA C (Wako Pure Chemical, Osaka, Japan) kits, respectively.” left out

[6] = system: murine Ehrlich ascites cancer cells; assay: Cell proliferation / cell death assay, Ehrlich ascites cancer cells; type: cell-based; conditions: 10-100 μM
Experimental: as §2, §1

CCCCCCCCCCCCCCCC(=O)O[C@@H]1C(O)C(O)[C@H](O)C(O[C@H]2OC(CO)[C@@H](O)[C@H](O)C2N)C1O (stereo in doubt) [IG1, 2-Amino-2-deoxy-α-D-glucopyranosyl-(1→6)-2-palmitoyl-D-myo-inositol]
proliferation of human normal cultured cells [1]: did not affect the proliferation | rapid cancer cell death (AGS): rapid cancer cell death was demonstrated | daily food intakes, body weight, and fasting plasma concentrations of insulin, triglyceride, free fatty acids and leptin [2]: significantly reduces | rapid cancer cell death (MiaPaca2): rapid cancer cell death was demonstrated | glucose tolerance [3]: improves glucose tolerance | hepatic and muscular glycogen synthesis [3]: increases hepatic and muscular glycogen synthesis | rapid cancer cell death (MKN45): rapid cancer cell death was demonstrated | plasma glucose concentrations ([4]; intravenous, normal mice): reduced plasma glucose concentrations | hepatic and muscular glycogen synthesis ([4]; mice on normal diets, data not shown): increases hepatic and muscular glycogen synthesis | cell death of HUVEC [5]: induces rapid cell death | Adiponectin (ob/ob obese mice): 47.6 ± 4.6 µg/mL | Body weight (ob/ob obese mice): 40.1 ± 3.2 g | Fasting plasma glucose (ob/ob obese mice): 66.1 ± 8.3 mg/dL | Fasting plasma insulin (ob/ob obese mice): 16.3 ± 4.3 ng/mL | Food intake (ob/ob obese mice): 4.53 ± 0.74 g/day | NEFA (ob/ob obese mice): 0.88 ± 0.34 mEq/l | TNF-1α (ob/ob obese mice): 34.7 ± 6.7 pg/mL | Total cholesterol (ob/ob obese mice): 172.4 ± 13.6 mg/dL | Triglyceride (ob/ob obese mice): 31.2 ± 5.3 mg/dL | hepatic and muscular glycogen synthesis (STZ-diabetic mice; intraperitoneal 7 days, data not shown): increases hepatic and muscular glycogen synthesis | fasting plasma glucose concentrations (STZ-diabetic mice; intraperitoneal, 0.3 mg per mice, for every 7 days): significantly reduced fasting plasma glucose concentrations | rapid cancer cell death [6]: rapid cancer cell death was demonstrated
